The values below come from PubChem BioAssay (NCI).

Among the test systems are HCT-15 colon; ACHN renal; NCI-H460 lung; SNB-19 CNS; MDA-MB-435; OVCAR-8 ovarian; HCC-2998 colon; M14 melanoma; HS 578T breast; LOX IMVI melanoma.
Test in all cases: NCI-60 cell line screen, 48 h

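A five-concentration, 48-hour dose response in 96-well plates underlies each endpoint, interpolated linearly between surrounding concentrations. At the GI50, growth is halved. TGI is the concentration that stops growth completely.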 A value given as a limit tells only on which side of the number the result lay.

With `Nn1c(Cc2ccc(Cl)cc2)n[nH]c1=O`, the TGI in the experiment on HCT-15 colon, in the experiment with ACHN renal, in the experiment with NCI-H460 lung, in the experiment with SNB-19 CNS, in the experiment on MDA-MB-435 and with OVCAR-8 ovarian was > 100 µM throughout. For the same compound, the TGI with HCC-2998 colon, in the experiment with M14 melanoma, with HS 578T breast and in the experiment on LOX IMVI melanoma was > 100 µM in each case.
Consider `Cn1ccnc1CCc1ccc(F)cc1F`, for which the TGI with HCT-15 colon, with ACHN renal, with NCI-H460 lung, in the experiment with SNB-19 CNS, in the experiment on MDA-MB-435 and with OVCAR-8 ovarian was > 100 µM throughout. In addition, the TGI in the experiment with HCC-2998 colon, with M14 melanoma, in the experiment on HS 578T breast and in the experiment with LOX IMVI melanoma was > 100 µM throughout.
With `COC(c1ccsc1)C(C#N)(C#N)N=Cc1ccsc1` (stereo unspecified), the TGI in the experiment on HCT-15 colon was 25.9 µM; in the experiment on ACHN renal it was 54.6 µM; in the experiment on NCI-H460 lung, 45.4 µM; in the experiment with SNB-19 CNS, 55.3 µM; in the experiment with MDA-MB-435, 29.6 µM; in the experiment with OVCAR-8 ovarian it was 49.9 µM. In addition, the TGI in the experiment on HCC-2998 colon amounted to 34 µM; in the experiment with M14 melanoma, 33.7 µM; in the experiment with HS 578T breast, 61.7 µM; in the experiment on LOX IMVI melanoma, 22 µM.
Take `CCSSCS(C)(=O)=O`: the TGI with HCT-15 colon is 32.9 µM; in the experiment with ACHN renal, > 100 µM; with NCI-H460 lung, > 100 µM; in the experiment on SNB-19 CNS, > 100 µM; in the experiment with MDA-MB-435, > 100 µM; with OVCAR-8 ovarian, 57.4 µM. Also, the TGI in the experiment on HCC-2998 colon was 34.7 µM; in the experiment with M14 melanoma, 55.3 µM; in the experiment on HS 578T breast, > 100 µM; in the experiment on LOX IMVI melanoma it was > 100 µM.
Take `CC1CN=C(Nc2cccc(C(F)(F)F)c2)S1` (stereo unspecified): the TGI with HCT-15 colon, in the experiment with ACHN renal, in the experiment on NCI-H460 lung, in the experiment on SNB-19 CNS, in the experiment with MDA-MB-435 and with HCC-2998 colon was > 100 µM in each case. Also, the TGI with M14 melanoma, with HS 578T breast and in the experiment with LOX IMVI melanoma was > 100 µM in each case.
For `O=C(Nc1ccccc1)c1cc2c(cc1Cl)Sc1nccn1S2(=O)=O`, the TGI was > 75.3 µM with HCT-15 colon; > 83.1 µM in the experiment on ACHN renal; > 60.6 µM in the experiment with NCI-H460 lung; > 100 µM in the experiment on SNB-19 CNS; 42.2 µM in the experiment on MDA-MB-435; > 100 µM with OVCAR-8 ovarian. For the same compound, the TGI in the experiment with HCC-2998 colon was 37.7 µM; in the experiment with M14 melanoma, > 58.2 µM; in the experiment with HS 578T breast, > 84.4 µM; in the experiment on LOX IMVI melanoma, 39 µM.
Consider `COc1ccc(-c2oc3ccc(C)cc3c(=O)c2O)cc1`, for which the TGI was > 100 µM in the experiment with HCT-15 colon; > 100 µM in the experiment with ACHN renal; > 100 µM in the experiment on SNB-19 CNS; > 100 µM with MDA-MB-435; 79.3 µM in the experiment on OVCAR-8 ovarian; > 100 µM with HCC-2998 colon. Further, the TGI in the experiment on M14 melanoma, in the experiment with HS 578T breast and in the experiment with LOX IMVI melanoma was > 100 µM each time.
On to `COc1cc2c(cc1OC)C1CN3C(=O)CCC3C(O)C1c1cc(OC)c(OC)cc1-2` (stereo unspecified), for which the TGI in the experiment with HCT-15 colon, in the experiment with ACHN renal, in the experiment on NCI-H460 lung, in the experiment with SNB-19 CNS, in the experiment with MDA-MB-435 and with OVCAR-8 ovarian was > 100 µM in each case. For the same compound, the TGI in the experiment with HCC-2998 colon, with M14 melanoma, in the experiment with HS 578T breast and in the experiment with LOX IMVI melanoma was > 100 µM each time.
As to `CCCCC/C=C1/CC(CO)(COC(=O)CC(C(C)C)C(C)C)OC1=O` (stereo unspecified), the TGI in the experiment on HCT-15 colon was 33.6 µM; with ACHN renal it was 24.7 µM; in the experiment with NCI-H460 lung it was > 100 µM; in the experiment on SNB-19 CNS, 21.2 µM; with MDA-MB-435, 19 µM; with OVCAR-8 ovarian, 31 µM. Moreover, the TGI was found to be 35.2 µM in the experiment on HCC-2998 colon, 27.1 µM in the experiment on M14 melanoma and 9.09 µM in the experiment with HS 578T breast.
Regarding `O=S(=O)(c1cc(Cl)ccc1Cl)N1CCN(S(=O)(=O)c2cc(Cl)ccc2Cl)CC1`, the TGI with HCT-15 colon, with ACHN renal, in the experiment on NCI-H460 lung, in the experiment on SNB-19 CNS, in the experiment on MDA-MB-435 and with OVCAR-8 ovarian was > 100 µM each time. In addition, the TGI in the experiment on HCC-2998 colon is > 100 µM; in the experiment with M14 melanoma it was > 100 µM; in the experiment with HS 578T breast, 83.4 µM.
In the case of `CCN1CCN(C(=O)[C@]23CC[C@@H](C)[C@H](C)[C@@H]2C2=CC[C@@H]4[C@@]5(C)C/C(=C/c6cccnc6)C(=O)C(C)(C)[C@@H]5CC[C@@]4(C)[C@]2(C)CC3)CC1`, the GI50 in the experiment on HCT-15 colon is 1.66 µM; with ACHN renal, 2.46 µM; in the experiment on NCI-H460 lung, 1.78 µM; in the experiment with SNB-19 CNS it was 1.79 µM; in the experiment with MDA-MB-435 it was 1.7 µM; in the experiment on OVCAR-8 ovarian, 2.32 µM. Moreover, the GI50 with HCC-2998 colon was 1.55 µM; in the experiment on HS 578T breast, 1.91 µM; in the experiment on LOX IMVI melanoma it was 1.58 µM. For the same compound, the TGI in the experiment on HCT-15 colon was determined as 3.26 µM; in the experiment with ACHN renal it was 6.45 µM; in the experiment on NCI-H460 lung it was 3.45 µM; in the experiment on SNB-19 CNS, 3.74 µM; in the experiment on MDA-MB-435, 3.49 µM; with OVCAR-8 ovarian it was 6.29 µM. For the same compound, the TGI with HCC-2998 colon came out at 3 µM; in the experiment with HS 578T breast it was 4.77 µM; in the experiment with LOX IMVI melanoma it was 3.06 µM.
On to `Oc1ccc2c(c1)-c1c(c3cc(O)ccc3n1CCN1CCOCC1)CC2`, for which the TGI is 45.4 µM in the experiment on HCT-15 colon; > 100 µM in the experiment with ACHN renal; > 100 µM with SNB-19 CNS; 48.8 µM in the experiment with MDA-MB-435; 86.8 µM in the experiment with OVCAR-8 ovarian; 32.6 µM with HCC-2998 colon. Further, the TGI in the experiment with M14 melanoma was 50.1 µM; in the experiment on HS 578T breast, > 100 µM; in the experiment on LOX IMVI melanoma, 35.7 µM.
Consider `COC(=O)c1c(OC(C)=O)ccc2c1c1c(OC(C)=O)c3ccccc3c(OC(C)=O)c1n2Cc1cc(OC)cc(OC)c1`, for which the TGI was > 100 µM in the experiment with HCT-15 colon; > 100 µM in the experiment with ACHN renal; > 100 µM with NCI-H460 lung; > 100 µM with SNB-19 CNS; 78.3 µM with MDA-MB-435; > 100 µM in the experiment with OVCAR-8 ovarian. Further, the results for the TGI with HCC-2998 colon, with M14 melanoma and in the experiment with HS 578T breast were 10.9 µM, > 100 µM and > 100 µM, respectively.
Consider `Oc1nc(N/N=C/c2c[nH]c3ccccc23)[nH]c1/C=C1\C=Nc2ccccc21`, for which the TGI is 61 µM with HCT-15 colon; 49.1 µM in the experiment with ACHN renal; > 100 µM in the experiment with NCI-H460 lung; > 100 µM in the experiment with SNB-19 CNS; 62.4 µM with MDA-MB-435; 29.2 µM with OVCAR-8 ovarian. Besides, the TGI in the experiment with M14 melanoma is 75.9 µM; in the experiment with HS 578T breast it was 40.6 µM; in the experiment on LOX IMVI melanoma, 31.1 µM.
Take `O=c1c2ccccc2oc2c1ccc1ncccc12`: the TGI in the experiment with HCT-15 colon was > 100 µM; in the experiment on ACHN renal it was 23.1 µM; in the experiment with NCI-H460 lung, 17 µM; in the experiment on MDA-MB-435, > 100 µM; in the experiment with OVCAR-8 ovarian, > 100 µM; in the experiment on HCC-2998 colon it was > 100 µM. Besides, the values for the TGI in the experiment on HS 578T breast and in the experiment on LOX IMVI melanoma were 34.8 µM and 43.8 µM, respectively.
In the case of `COc1ccc(/C=N\N2CC(=O)N3C4C=CC(CC4)N3C2=O)cc1` (stereo unspecified), the TGI in the experiment with HCT-15 colon, with ACHN renal, in the experiment with NCI-H460 lung, in the experiment with SNB-19 CNS, with MDA-MB-435 and with OVCAR-8 ovarian was > 100 µM throughout. Also, the TGI with M14 melanoma, in the experiment on HS 578T breast and in the experiment with LOX IMVI melanoma was > 100 µM throughout.
`CCSc1ncnc2c(C3OC(CO)C(O)C3O)nsc12` (stereo unspecified): the TGI in the experiment with HCT-15 colon, with MDA-MB-435, in the experiment on OVCAR-8 ovarian, in the experiment with HCC-2998 colon, with M14 melanoma and with HS 578T breast was > 100 µM throughout. Also, the TGI in the experiment with LOX IMVI melanoma was > 100 µM.
Take `NNC(=O)CC(=O)Nc1ccc(Cl)cc1`: the TGI in the experiment with HCT-15 colon, with ACHN renal, in the experiment with NCI-H460 lung, in the experiment on SNB-19 CNS, in the experiment with MDA-MB-435 and in the experiment with OVCAR-8 ovarian was > 100 µM throughout. The TGI with HCC-2998 colon, with HS 578T breast and in the experiment with LOX IMVI melanoma was > 100 µM each time.
As to `O=[N+]([O-])C(/C(Cl)=C(/Cl)N1CCOCC1)=C1\NCCO1`, the TGI in the experiment on HCT-15 colon, in the experiment with ACHN renal, in the experiment with NCI-H460 lung, in the experiment with SNB-19 CNS, in the experiment on MDA-MB-435 and with OVCAR-8 ovarian was > 100 µM in each case. Besides, the TGI in the experiment on HCC-2998 colon, with M14 melanoma and in the experiment on HS 578T breast was > 100 µM each time.
For the compound `C(=N\Nc1ncc(-c2cc3cc4c(cc3o2)OCO4)s1)/c1c[nH]c2ccccc12`, the GI50 in the experiment with HCT-15 colon is 1.14 µM; with ACHN renal it was 0.86 µM; with SNB-19 CNS, 1.57 µM; in the experiment on MDA-MB-435, 1.74 µM; in the experiment on OVCAR-8 ovarian it was 1.65 µM; in the experiment on HCC-2998 colon, 2.06 µM. For the same compound, the figures for the GI50 with M14 melanoma, with HS 578T breast and in the experiment with LOX IMVI melanoma were 3.34 µM, 2.02 µM and 0.426 µM, respectively. Further, the TGI was 3.25 µM in the experiment on HCT-15 colon; 2.61 µM with ACHN renal; 6.25 µM in the experiment with SNB-19 CNS; 4.44 µM in the experiment with MDA-MB-435; > 100 µM in the experiment with OVCAR-8 ovarian; 5.13 µM in the experiment on HCC-2998 colon. The results for the TGI with M14 melanoma, in the experiment with HS 578T breast and with LOX IMVI melanoma were 12.7 µM, 6.02 µM and 1.7 µM, respectively.
